# Assay results reported in patent publication US20160075689A1, “POLYMERASE, ENDONUCLEASE, AND HELICASE INHIBITORS AND METHODS OF USING THEREOF” (THE BOARD OF TRUSTEES OF THE UNIVERSITY OF ARKANSAS, priority 2013, published 2016).
# Biological target: T1, EndoG (Homo sapiens, UniProt Q14249)
# T1 sequence (Q14249 49-297): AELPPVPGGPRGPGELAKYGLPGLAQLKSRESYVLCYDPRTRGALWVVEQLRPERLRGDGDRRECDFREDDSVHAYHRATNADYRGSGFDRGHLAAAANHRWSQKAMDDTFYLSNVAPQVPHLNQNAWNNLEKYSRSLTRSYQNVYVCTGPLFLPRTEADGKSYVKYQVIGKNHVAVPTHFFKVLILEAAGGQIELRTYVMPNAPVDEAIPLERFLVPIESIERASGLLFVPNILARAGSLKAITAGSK
# Experiment: High-throughput EndoG screening assay
# Assay type: biochemical
# Settings: 20 min; compound 1 μM; read-out: % EndoG activity in the presence of the compound
# Description: A reaction mixture was prepared in each well of a white 96-well plate (Costar, Corning, N.Y.) as follows: 0.25 μM Cy5.5-labeled oligonucleotide (described in US provisional patent filed Oct. 19, 2012, Ser. No. 61/716,097) 0.3 mM MgCl2, 10 mM Tris-HCl, pH 7.4, 1 μl DMSO containing 5 or 50 ng of test compound, and nuclease-free water for a total reaction volume of 100 μl. The background (negative control) and uninhibited EndoG samples were measured using DMSO only, or DMSO containing recombinant EndoG (4 μg/ml), respectively. After addition of EndoG, fluorescence intensity was kinetically measured on a Bio-Tek Synergy 4.0 plate reader at 37° C. and mean velocity (mRFU/min) within 20 min was automatically calculated by the plate reader. The background was subtracted prior to the calculation of EndoG activity (%). The percent of EndoG activity was calculated from the mean velocity of a compound divided by the mean velocity of DMSO with recombinant EndoG, and the obtained value multiplied by 100.
row,SMILES,remaining activity at 1 µM [%]
1,COc1ccc2c(c1)c(C=C1C(=O)NC(=S)NC1=O)c(C)n2C(=O)c1cccc2ccccc12 [PNR-6-74],63.5
2,CN1C(=O)C(=Cc2cn(Cc3ccc4ccccc4c3)c3ccccc23)C(=O)N(C)C1=O [PNR-6-99],71.7
3,O=C1NC(=S)NC(=O)C1=Cc1cn(Cc2cccc3ccccc23)c2ccccc12 [PNR-6-83],16
4,CN1C(=O)C(=Cc2cn(Cc3cccc4ccccc34)c3ccc(Br)cc23)C(=O)N(C)C1=O [PNR-6-93],45.8
5,Cc1c(C=C2C(=O)NC(=S)NC2=O)c2ccccc2n1Cc1ccc([N+](=O)[O-])cc1 [PNR-6-17],69.8
6,O=C1NC(=O)C(=Cc2cn(Cc3cccc(C(F)(F)F)c3)c3ccc(Cl)cc23)C(=O)N1 [PNR-7-17],57.1
7,Cc1c(C=C2C(=O)NC(=S)NC2=O)c2ccccc2n1C(=O)c1cccc2ccccc12 [PNR-6-65],65
8,O=C1NC(=S)NC(=O)C1=Cc1cn(Cc2ccc3ccccc3c2)c2ccc(Cl)cc12 [PNR-7-2],17.8
9,CN1C(=O)C(=Cc2cn(C(=O)c3ccc4ccccc4c3)c3ccc(Cl)cc23)C(=O)N(C)C1=O [PNR-6-60],67.9
10,Cc1c(C=C2C(=O)NC(=S)NC2=O)c2ccccc2n1C(=O)c1ccc2ccccc2c1 [PNR-6-69],31.6
11,COc1ccc2c(c1)c(C=C1C(=O)NC(=O)NC1=O)cn2Cc1cccc2ccccc12 [PNR-6-85],52.7
12,CN1C(=O)C(=Cc2cn(Cc3cccc4ccccc34)c3ccc(Cl)cc23)C(=O)N(C)C1=O [PNR-6-90],35.9
13,O=C1NC(=O)C(=Cc2cn(Cc3cccc4ccccc34)c3ccc(Br)cc23)C(=O)N1 [PNR-6-91],12.7
14,COc1ccc2c(c1)c(C=C1C(=O)NC(=S)NC1=O)cn2Cc1cccc2ccccc12 [PNR-6-86],9.55
15,O=C1NC(=S)NC(=O)C1=Cc1cn(Cc2cccc3ccccc23)c2ccc(Cl)cc12 [PNR-6-89],3.5
16,O=C1NC(=O)C(=Cc2cn(Cc3ccccc3Br)c3ccccc23)C(=O)N1 [PNR-7-7],14.1

row,SMILES,remaining activity at 1 µM [%]
1,O=C1NC(=S)NC(=O)C1=Cc1cn(Cc2cccc(C(F)(F)F)c2)c2ccc(Cl)cc12 [PNR-7-18],14.1
2,CN1C(=O)C(=Cc2cn(Cc3cccc(C(F)(F)F)c3)c3ccccc23)C(=O)N(C)C1=O [PNR-7-16],17.2
3,Cc1c(C=C2C(=O)NC(=S)NC2=O)c2ccccc2n1Cc1cccc(C(F)(F)F)c1 [PNR-7-24],73.6
4,O=C1NC(=S)NC(=O)C1=Cc1cn(Cc2cccc3ccccc23)c2ccc(Br)cc12 [PNR-6-92],8.9
5,COc1ccc2c(c1)c(C=C1C(=O)NC(=S)NC1=O)c(C)n2Cc1cccc2ccccc12 [PNR-7-27],19.1
6,O=C1NC(=S)NC(=O)C1=Cc1cn(Cc2ccccc2Br)c2ccccc12 [PNR-7-8],58
7,COc1ccc2c(c1)c(C=C1C(=O)NC(=O)NC1=O)cn2Cc1ccc2ccccc2c1 [PNR-7-4],24.7
8,CN1C(=O)C(=Cc2cn(Cc3ccc4ccccc4c3)c3ccc(Cl)cc23)C(=O)N(C)C1=O [PNR-7-3],59.1
9,Cc1c(C=C2C(=O)NC(=O)NC2=O)c2ccccc2n1C(=O)c1cccc2ccccc12 [PNR-6-64],71.7
10,COc1cc(Cn2c(C)c(C=C3C(=O)NC(=S)NC3=O)c3ccccc32)cc(OC)c1 [PNR-5-96],71.5
11,O=C1NC(=O)C(=Cc2cn(Cc3ccc4ccccc4c3)c3ccc(Cl)cc23)C(=O)N1 [PNR-7-1],14.8
12,COc1ccc2c(c1)c(C=C1C(=O)NC(=S)NC1=O)cn2Cc1ccc2ccccc2c1 [PNR-7-5],13.8
13,CN1C(=O)C(=Cc2cn(C(=O)c3cccc4ccccc34)c3ccc(Cl)cc23)C(=O)N(C)C1=O [PNR-6-59],47.5
14,O=C1NC(=S)NC(=O)C1=Cc1cn(Cc2ccc3ccccc3c2)c2ccccc12 [PNR-6-98],15.7
15,O=C1NC(=O)C(=Cc2cn(Cc3cccc4ccccc34)c3ccc(Cl)cc23)C(=O)N1 [PNR-6-88],22.9
16,COc1ccc2c(c1)c(C=C1C(=O)NC(=S)NC1=O)cn2Cc1cccc(C(F)(F)F)c1 [PNR-7-21],28.8

# Biological target: T1, EndoG
# Experiment: Plasmid incision assay
# Assay type: biochemical
# Settings: agarose gel, FIG. 9
# Description: A reaction mixture was prepared containing 0.5 μg pECFP plasmid DNA, 2 mM CaCl2, 5 mM MgCl2, 10 mM Tris-HCl, pH 7.4, 0.5 mM dithiothreitol. The test compound [50 ng in DMSO (1 μl)] was added. Recombinant EndoG was then added to the final concentration of 200 ng/ml and the reaction was incubated for 1 h at 37° C. The reaction was terminated by adding 2 μl of 10 mM Tris-HCl, pH 7.4, 1% SDS, 25 mM EDTA, 7.2 mM bromophenol blue. The samples were run in 1% agarose gel in Tris-acetate-EDTA buffer (40 mM Tris, 20 mM acetic acid, 1 mM EDTA, pH 8), at 7 V/cm for 35 min, and DNA was stained with ethidium bromide. An EagleEye scanning densitometer (Stratagene, La Jolla, Calif.) was utilized to quantify the relative amount of endonuclease-treated plasmid DNA present in a covalently-closed circular (supercoiled) DNA, open circular DNA, or linear DNA, or in a digested form.
row,SMILES,protection of supercoiled plasmid DNA from degradation by EndoG
1,"[Cl-].[Cl-].[Zn+2] [ZnCl2, reference compound]",inhibited

# Biological target: T2, hpol η (Homo sapiens, UniProt Q9Y253)
# T2 construct: human DNA polymerases η (amino acids 1-437); 6x-histidine (N, cleaved yes); GST (N, cleaved yes); made in house; host or cells: Escherichia coli BL21 (DE3)
# T2 sequence (Q9Y253 1-437): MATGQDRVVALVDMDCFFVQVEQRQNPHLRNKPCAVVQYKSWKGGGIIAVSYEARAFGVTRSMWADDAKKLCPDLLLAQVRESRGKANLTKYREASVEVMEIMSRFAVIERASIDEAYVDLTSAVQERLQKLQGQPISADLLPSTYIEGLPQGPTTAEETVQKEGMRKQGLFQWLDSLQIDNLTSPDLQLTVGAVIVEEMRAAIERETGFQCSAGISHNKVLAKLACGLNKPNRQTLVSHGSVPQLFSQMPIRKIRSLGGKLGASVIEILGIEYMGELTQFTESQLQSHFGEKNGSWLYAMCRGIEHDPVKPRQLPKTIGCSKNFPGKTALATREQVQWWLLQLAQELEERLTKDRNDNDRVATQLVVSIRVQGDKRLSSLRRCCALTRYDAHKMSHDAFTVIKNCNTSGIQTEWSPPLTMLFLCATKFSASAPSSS
# Experiment: Fluorescence-based DNA polymerase strand-displacement assay
# Assay type: biochemical
# Settings: not given
# Source text: A library of 320 compounds targeted against nucleic acid interacting proteins was screened for inhibition of polymerase activity using an assay that monitors fluorescence from a 5-carboxytetramethylrhodamine (TAMRA) labeled oligonucleotide. In order to prepare the DNA for the experiment, a TAMRA-labeled reporter (or displaced) strand (SEQ ID NO. 4: 5′-TTT TTT TTG C-TAMRA-3′) and unlabeled primer strand (SEQ ID NO. 5: 5′-TCA CCC TCGTAC GAC TCT T-3′) were annealed to a Black Hole Quencher (BHQ)-labeled template strand (SEQ ID NO. 6: 5′BHQ2-GCAAAAAAAAAA GAG TCG TAC GAG GGT GA-3′) in a solution containing 10 mM Tris (pH 8.0), 50 mM NaCl, 2 mM MgCl2, and dH2O. The template (T), primer (P) and displaced strand (D) oligonucleotides were mixed in a 1:1.5:1.5 (T:P:D) molar ratio for annealing. After an incubation period of three minutes at 95° C., the DNA was allowed to slowly cool to room temperature overnight.
# The fluorescence-based assay used to screen for polymerase inhibitors measures polymerase-catalyzed displacement of a TAMRA-labeled oligonucleotide (FIG. 1). For the initial screen, the experimental setup included 50 nM hpol η), 50 nM DNA, 6 μM compound, 100 μM dTTP and 1 mM MgCl2. The reactions were performed in 50 mM Tris (pH 8.0) buffer containing 40 mM NaCl, 2 mM dithiothreitol, and 0.01% (v/v) Tween-20. The concentration of dimethyl sulfoxide (DMSO) was 3.5% (v/v) for the initial screen. The enzyme, the compounds (including a DMSO control) and dTTP were combined with the reaction buffer in individual wells of each half-plate and allowed to incubate for 5-10 minutes. The DNA substrate was subsequently added to initiate the reaction and the plate was read immediately using a BioTek SynergyH4 plate reader (λex=525 nm, λem=598 run). The final reaction volume was 200 μL. Fluorescence was monitored for 90 minutes for most reactions. The initial portion of the velocity curve was analyzed by linear regression to calculate an observed rate of product formation. For each data set, eight DMSO control experiments were averaged to obtain our measure of 100% activity. Rates of product formation in the presence of each compound were then divided by the rate of the DMSO control to produce a relative measure of polymerase activity (0 to 1, with 1 being no inhibition).
# In order to determine the IC50 value for each enzyme, the fluorescence-based polymerase assay was repeated with increasing concentrations of inhibitor. The conditions varied slightly for each enzyme. With the exception of hpol ι, all IC50 experiments were performed in 50 mM Tris HCl (pH 8.0) buffer containing 1 mM MgCl2, 0.1 mM dTTP, 40 mM NaCl, 2 mM DTT, 0.01% (v/v) Tween-20 and 10% (v/v) DMSO. For experiments with hpol ι, KCl was substituted for NaCl and 0.25 mM MnCl2 was substituted for MgCl2. The concentration of inhibitor was 0, 1, 5, 10, 20, 30, 50, 75 and 100 μM. The enzyme and DNA concentrations were as follows: 10 nM hpol η, 50 nM DNA; 3 nM hpol κ, 60 nM DNA; 50 nM hpol ι, 50 nM DNA; 10 nM Dpo4, 50 nM DNA; 100 nM Dpo1, 50 nM DNA; 50 nM hpol β, 50 nM DNA; 50 nM HIV-1 RT, 50 nM DNA. The percent activity was plotted as a function of the log of inhibitor concentration and fit to a four-parameter logistic model (equation 1) using Prism software (Graph Pad, San Diego, Calif.): […]
row,SMILES,IC50 [µM]
1,O=C1NC(=S)NC(=O)C1=Cc1cn(C(=O)c2cccc3ccccc23)c2ccc(Cl)cc12 [ITBA-17],15.8 ± 3.3

# Same assay, conditions: 50 μM compound
row,SMILES,hpol η percent activity relative to the control assay
1,O=C1NC(=S)NC(=O)C1=Cc1cn(C(=O)c2cccc3ccccc23)c2ccc(Cl)cc12 [ITBA-17],most potent inhibitor
